# Like-named read-outs stand apart in the source and are kept apart here.
# Experiments:
# white mice [1] = assay: Porsolt's swimming behaviour test (duration of immobilization); format: in vivo; conditions: for Duration of immobilization, %: distilled water = 100
# Experimental: The effect of the compound according to the present invention on the duration of immobilization in Porsolt's swimming behaviour test (Porsolt et al., 1977) in experiments on white mice of both sexes with a mass of 16-18 g. […] Sixty minutes after the last (or a single) administration of the preparations, the mice were placed into cylinders (10 cm diameter, 25 cm height) filled with water to 6 cm. The temperature of water was 21-22 °C. […] The number and duration of all stops in swimming (immobilization) over the observation period were recorded.
# white rats = assay: Stereotypy induced by d,l-amphetamine; format: in vivo; conditions: distilled water = 100
# Experimental: To evaluate the influence on stereotypy, the experiments were carried out on white rats of both sexes with a mass of 100-150 g. […] Stereotypy was assessed in points of from to 3 (after Janssen et al., 1967).
# white mice [2] = assay: Enhancement of the effect of 5-hydroxytryptophane (head shaking); format: in vivo
# Experimental: The compound according to the present invention was tasted for the exciting effect of 5-hydroxytryptophane (head shaking).
# The compound according to the present invention in the doses of 1.0, 2.5, 5.0 and 10 mg/kg was administered orally 60 minutes prior to an intraperitoneal administration of 5-hydroxytryptophane (50 mg/kg).
# cats = assay: Bioelectrical activity of the brain (electroencephalogram), cats; format: in vivo
# Description: (§1) The study of the effect on the bioelectrical activity of the brain was effected in acute experiments using 8 consious cats immobilized with diplacin with a mass of 2.5-3.4 kg under conditions of a controlled breathing and 25 rabbits with a mass of 2.6-3.1 kg with chronically implanted electrodes. Recorded on an electroencephalograph was an electroencephalogram of the sensomotor, parietal and visual regions of the cerebral cortex in cats, plus that of the reticular formation of the midbrain, dorsal hippocamp and amygdala in rabbits.
# rabbits = assay: Bioelectrical activity of the brain (electroencephalogram), rabbits; format: in vivo
# Description: as §1
# [3] = system: normotensive rats of the Vistar line; assay: Effect on arterial pressure and heart beat rate; format: in vivo
# Experimental: The compound according to the present invention was also tested for its effect on the cardiovascular system.
# [4] = Central and peripheral anticholinergic effect (oxotremorine, arecoline, galantamine); format: in vivo; conditions: 10 and 25 mg/kg orally and 1.0, 2.0 and 5.0 mg/kg intravenously
# Experimental: The compound according to the present invention was also tested for its central and peripheral anticholinergic effect.
# mice = assay: Acute toxicity, mice; format: in vivo
# Description: (§2) The acute and chronical toxicity of the compound according to the present invention was studied on mice, rats and rabbits.
# rats = assay: Acute toxicity, rats; format: in vivo
# Description: as §2
# mice, rats and rabbits = assay: Chronical toxicity, daily administration for 6 months; format: in vivo; conditions: daily for 6 months
# Description: as §2
# Upon a daily administration of the compound according to the present invention for the period of 6 months no functional disturbances on the part of the inner organs of the animals were observed.
# [5] = system: fruit fly, embryonic cells of rats, bone-marrow cells of mice, culture of human lymphocytes; assay: Mutagenous effect tests; conditions: genetic mutations, dominant lethal mutations, chromosome aberrations
# Experimental: The compound according to the present invention was also tested for a possible mutagenous effect by methods of evaluation of genetic mutations on fruit fly: dominant lethal mutations were studied on embryonic cells of rats, chromosome aberrations - in bone-marrow cells of mice and in a culture of human lymphocytes.
# mice and rats = assay: Carcinogenic properties, chronic experiment; format: in vivo
# [6] = Allergenic, embryotoxic and teratogenic effect; conditions: in vivo
# Solubility = format: physicochemical
# patients = assay: Clinical test on patients with depressions; format: in vivo, human beings
# Experimental: The drug according to the present invention was tested in a clinic on patients (561 persons) aged 18 to 72 suffering from depressions of various genesis - endogenous, reactive, neurotic depressions caused by organic injuries of the brain, as well as depressive disturbances in chronical alcoholism and the like.
# Clinical tests for different types of depressions were carried out in the following groups of patients:
# The drug according to the present invention was administered orally in tablets twice a day - in the morning and in the afternoon. The dose depended on the severity of disease, efficiency and tolerance of the drug.
# The treatment was usually started with administration of the drug in single doses of 0.025 g (25 mg) with a gradual increment of the daily dose for 1 to 3 weeks up to 200-300 to 350-400 mg.
# The treatment duration ranged from 7 days to 12 weeks, more frequently 40-45 days.
# In a number of cases (55 patients) the drug according to the present invention was administered in combination with other psychotropic agents selected mainly from the group of tranquilizers and neuroleptics (tazepam, seduxen, tizercin, and the like).
# The efficiency as the drug according to the present invention was assessed with the use of assessment scales.
# [7] = Overall comparison of pharmacological parameters with pyrazidol; format: in vivo; conditions: certain pharmacological parameters
# [8] = system: normotensive female rats of the Vistar line; assay: Influence on the pressor effect of tyramine
# Experimental: The experiments were conducted on conscious normotensive female rats of the Vistar line with a mass of 210-250 g placed under conditions of a free behaviour.
# [9] = 5-days' administration, 1.0 mg/kg orally (dose from row order)
# [10] = 5-days' administration, 2.5 mg/kg orally (dose from row order)
# [11] = 5-days' administration, 5.0 mg/kg orally (dose from row order)
# [12] = 18-days' administration, 2.5 mg/kg orally (dose from row order)
# [13] = 18-days' administration, 5.0 mg/kg orally (dose from row order)
# [14] = single administration, 1.0 mg/kg orally
# [15] = single administration, 2.5 mg/kg orally
# [16] = single administration, 5.0 mg/kg orally
# [17] = endogenous depressions (maniac-depressive psychosis, schizophrenia), asthenic or asthenoadynamic syndromes, light and medium severity
substance,measurement,setting,value
"2,3,3a,4,5,6-hexahydro-8-cyclohexyl-1H-pyrazino-(3,2,1-j,k)-carbazole hydrochloride [Compound of the present invention]","Duration of immobilization, Seconds, M±m",white mice [1]; [9],102 ± 8.1 s
same,"Duration of immobilization, %",white mice [1]; [9],61%
same,"Duration of immobilization, Seconds, M±m",white mice [1]; [10],102 ± 6.1 s
same,"Duration of immobilization, %",white mice [1]; [10],61%
same,"Duration of immobilization, Seconds, M±m",white mice [1]; [11],88 ± 5.2 s
same,"Duration of immobilization, %",white mice [1]; [11],53%
same,"Duration of immobilization, %","white mice [1]; 18-days' administration, 1.0 mg/kg orally (dose from row order)",58%
same,"Duration of immobilization, Seconds, M±m",white mice [1]; [12],96 ± 11.0 s
same,"Duration of immobilization, %",white mice [1]; [12],52%
same,"Duration of immobilization, Seconds, M±m",white mice [1]; [13],75 ± 9.8 s
same,"Duration of immobilization, %",white mice [1]; [13],41%
same,active in doses lower than those of imipramine and pyrazidol,"white mice [1]; Porsolt's test, mice, oral",10 times
same,"Duration of immobilization, Seconds, M±m",white mice [1]; [14],145 ± 10.4 s
same,"Duration of immobilization, %",white mice [1]; [14],92%
same,"Duration of immobilization, Seconds, M±m",white mice [1]; [15],111 ± 9.9 s
same,"Duration of immobilization, %",white mice [1]; [15],69%
same,"Duration of immobilization, Seconds, M±m",white mice [1]; [16],105 ± 8.1 s
same,"Duration of immobilization, %",white mice [1]; [16],63%
same,"Stereotypy (tolal, for 4 measurements for 4 hours after hypodermal administration of d,l-amphetamine), %",white rats; oral dose 2.5 mg/kg,145%
same,"Stereotypy (tolal, for 4 measurements for 4 hours after hypodermal administration of d,l-amphetamine), %",white rats; oral dose 5.0 mg/kg,170%
same,"Stereotypy (tolal, for 4 measurements for 4 hours after hypodermal administration of d,l-amphetamine), %",white rats; oral dose 10.0 mg/kg,225%
same,more active than pyrazidol in enhancing the convulsive activity of 5-hydroxytryptophane,"white mice [2]; mice, ratio of ED₅₀",about 8 times
same,"ED₅₀, the dose at which head shaking were noticed in 50% of the animals","white mice [2]; orally, 60 minutes prior to 5-hydroxytryptophane 50 mg/kg intraperitoneally, read 25 minutes after",2.5 (2.1-3.0) mg/kg
same,frequency of the rhythm of oscillations of biopotentials,"cats; 2 mg/kg, cats, all recorded regions of the brain cortex, control 8-10 per second",20-25 per second
same,amplitudes of oscillations of biopotentials,"cats; 2 mg/kg, cats, all recorded regions of the brain cortex, control 90-120 µV",25-40 µV
same,changes in the bioelectric activity in the cortex and subcortical brain structures,"cats; 0.5 and 1 mg/kg, intravenously and intraperitoneally, cats and rabbits not distinguished",did not bring about any changes
same,amplitude of sinusoidal regular waves (teta-activity),"rabbits; 2 mg/kg, rabbits, hippocampus",150-200 µV
same,frequency of sinusoidal regular waves (teta-activity),"rabbits; 2 mg/kg, rabbits, hippocampus",4-6 oscillations per second
same,frequency of regular low-amplitude rhythms,"rabbits; 2 mg/kg, rabbits, visual, parietal regions and reticular formation of the midbrain",5-7 oscillations per second
same,time after administration at which the variations in the electroencephalogram appeared,"rabbits; 2 mg/kg, species not given",75-90 minutes
same,time after administration at which the effect of activation was recorded,"rabbits; 5 mg/kg, species not given",45 to 60 min
same,heart beat rate,[3]; 10 mg/kg oral daily for 5 days,did not change the heart beat rate
same,effect on the arterial pressure and heart beat rate,"[3]; 1-100 mg/kg orally, free behaviour",no essential effect
same,central and peripheral anticholinergic effect,[4],absence of the anticholinergic effect
same,LD₅₀,"mice; oral administration, mice","1,300 mg/kg"
same,LD₅₀,mice; white mice,1.3 g/kg
same,LD₅₀,rats,2.5 g/kg
same,LD₅₀,rats; oral administration,"2,500 mg/kg"
same,pathomorphological study,"mice, rats and rabbits; 100 mg/kg",non-specific pathological changes in parenchymatous organs which were of a reversible character
same,pathomorphological study,"mice, rats and rabbits; 10 and 50 mg/kg",no pathological changes
same,mutagenic properties,[5],revealed no mutagenic properties
same,carcinogenic properties,mice and rats,did not reveal carcinogenic properties
same,"allergenic, embryotoxic or teratogenic effect",[6],"did not exhibit an allergenic effect, an embryotoxic or teratogenic effect"
same,solubility in a 95% ethanol and chloroform,Solubility,very sparingly soluble
same,solubility in water and ether,Solubility,substantially insoluble
same,"improvement observed, % of cases",patients; depressive disorders of the neurotic and reactive genesis,80-100%
same,"improvement observed, % of the events",patients; [17],37-92%
same,"improvement observed, % of the events, on the average",patients; [17],50%
same,patients with a previous resistance to another antidepressant therapy in whom the drug was highly effective,"patients; human, in vivo",6 out of 21
same,toleration by patients,"patients; human, in vivo",good toleration by patients
same,more active than the known preparation pyrazidol,[7],2-10 times
same,enhanced effect of tyramine,[8]; 5 mg/kg orally for 5 days,no enhanced effect of tyramine was observed
same,time after administration at which the enhanced effect of tyramine was noticed,[8]; 25 mg/kg orally,6 to 18 h
same,enhanced the pressor effect of tyramine,"[8]; 25 mg/kg orally, tyramine 20 mg/kg orally",2 times
